System: male beagle dogs
Assay: In vivo transdermal delivery: cardiac contractility change in anesthetized dogs
Protocol: To corroborate the in vitro results obtained using formulations of the present invention, the ability of the present formulation to provide transdermal delivery of dobutamine lactobionate through the skin of a living dog was also studied.
Two male beagle dogs were anesthetized with 100 mg/kg of sodium phenobarbitol and prepared for monitoring of electrocardiogram, contractile tension, heart rate and mean arterial pressure. Dobutamine lactobionate was administered by an i.v. bolus (4, 8 and 16 mcg/kg). After each animal's response returned to baseline, 1.0 ml of a formulation containing 218.9 mg of dobutamine lactobionate (100 mg equivalents of dobutamine free base), 2.0 mg of sodium bisulfite, 10.0 mg of n-decyl methyl sulfoxide in 1 ml of water was applied to a 25 cm² shaved area in the groin-abdominal region of each dog. Cardiac contractility changes in each dog were then monitored for the next 3 to 5 hours.
Column 2 discloses the time elapsed from the time the formulation was applied and Column 3 discloses the percent change in contractility (from baseline) observed at the time value shown in Column 2.

CC(CCc1ccc(O)cc1)NCCc1ccc(O)c(O)c1 (racemic) [dobutamine lactobionate, (±)-N-[3-(4-hydroxyphenyl)-1-methylpropyl]-2-(3,4-dihydroxyphenyl)ethylamine]
% Change In Contractility (Method I (applied directly to skin), 20 min): 30% | % Change In Contractility (Method I (applied directly to skin), 30 min): 35% | % Change In Contractility (Method I (applied directly to skin), 60 min): 48% | % Change In Contractility (Method I (applied directly to skin), 90 min): 21% | % Change In Contractility (Method I (applied directly to skin), 120 min): 16% | % Change In Contractility (Method I (applied directly to skin), 180 min): 0% | % Change In Contractility (Method I (applied directly to skin, covered with plastic film), 10 min, 1.0 ml formulation (218.9 mg lactobionate, 10.0 mg n-decyl methyl sulfoxide) on 25 cm² shaved skin, change from baseline): 16% | % Change In Contractility (Method II (cellulose triacetate polymer patch), 10 min, 1.0 ml formulation (218.9 mg lactobionate, 10.0 mg n-decyl methyl sulfoxide), change from baseline): 10% | % Change In Contractility (Method II (patch), 20 min): 26% | % Change In Contractility (Method II (patch), 30 min): 24% | % Change In Contractility (Method II (patch), 60 min): 36% | % Change In Contractility (Method II (patch), 90 min): 41% | % Change In Contractility (Method II (patch), 120 min): 33% | % Change In Contractility (Method II (patch), 150 min): 25% | % Change In Contractility (Method II (patch), 180 min): 27% | % Change In Contractility (Method II (patch), 210 min): 22% | % Change In Contractility (Method II (patch), 240 min): 9% | % Change In Contractility (Method II (patch), 270 min): 9% | % Change In Contractility (Method II (patch), 300 min): 11%

Reference: patent EP0492930A2, “Transdermal delivery of dobutamine” (ELI LILLY AND COMPANY, priority 1990, dated 1992)
